Test results: patent US20160067272A1, “METHODS FOR TREATING IMMUNE DISEASES” (priority 2013, published 2016)

What was measured:
[1] = system: CD4+CD25+ nTregs; assay: IL-17A secretion by nTregs cultured with NAD+ and purinergic receptor antagonists; conditions: for reduction of IL-17A cytokine production induced by NAD+: both selective antagonists (5-BDBD and A804598) added; for production of IL-17A cytokine induced by NAD+: nTregs cultured with NAD+ and the selective antagonist (5-BDBD: P2RX4; A804598: P2RX7; MRS 2279: P2RY1), ELISA
[2] = target: T1, Tph-1 (Mus musculus, UniProt P17532); assay: EAE mouse model with Tph-1 inhibition (NAD+ plus p-Chlorophenylalanine); format: in vivo
T1 construct: from tissue; host or cells: whole animal: C57BL/6 mice (Charles River Laboratories)
T1 sequence (P17532 1-447): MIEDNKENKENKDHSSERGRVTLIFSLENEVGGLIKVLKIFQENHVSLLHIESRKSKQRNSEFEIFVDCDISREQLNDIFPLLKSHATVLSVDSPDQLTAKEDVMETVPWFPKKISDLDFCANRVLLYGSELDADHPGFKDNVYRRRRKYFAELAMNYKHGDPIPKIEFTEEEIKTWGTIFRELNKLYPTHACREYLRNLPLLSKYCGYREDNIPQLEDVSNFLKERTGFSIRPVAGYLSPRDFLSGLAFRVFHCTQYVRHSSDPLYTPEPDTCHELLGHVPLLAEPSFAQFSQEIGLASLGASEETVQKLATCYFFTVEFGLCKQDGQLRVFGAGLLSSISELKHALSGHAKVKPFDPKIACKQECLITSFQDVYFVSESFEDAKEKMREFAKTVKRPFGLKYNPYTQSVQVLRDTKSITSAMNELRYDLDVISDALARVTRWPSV
Experimental: Tph-1 has been very recently shown to prevent from allograft rejection and EAE^45. Thus, it was tested, in vivo, whether NAD^+ protects from EAE and regulates CD4^+ T cell differentiation through Tph1. Mice were subjected to EAE and were treated daily with a placebo solution (PBS) or NAD^+ in addition to p-Chlorophenylalanine, a specific inhibitor of Tph-1.
Onsets of clinical signs of EAE in mice injected with MOG peptide and a placebo solution appeared after 11 days (FIG. 6A). […] However, when NAD^+ treated mice received simultaneously a treatment with a Tph-1 inhibitor, onset of clinical signs of EAE appeared after 11 days.
EAE was induced in 10-week-old C57BL/6 mice using Hooke Labs EAE induction kit (EK-2110) according to manufacturer's instructions. […] For NAD^+ treatment mice received a daily intraperitoneal injection (60 mg in 100 μl in PBS) or a placebo solution (100 μl of PBS) at the same day than MOG immunization. Mice were sacrificed at day 18 and single cell suspension was obtained from spleens for flow cytometry analysis. To test whether NAD^+ was able to reverse the development of EAE, another group of mice was treated daily (for a period of 10 days) with NAD^+ (60 mg/mouse) or a placebo solution 15 days after MOG immunization when mice were scored 3 with a bilateral hindlimb paresis. EAE disease progression was monitored. For Tph-1 or CA3 inhibition, mice received daily intraperitoneal injections (simultaneous to NAD^−) of p-Chlorophenylalanine (1 ml of a 10 mM solution stock, catalog number 0938, Tocris Bioscience) or N-[[[(1S)-1-Carboxy-3-methylbutyl]amino]carbonyl]-L-glutamic acid (100 μl of a 100 mM solution stock, ZJ 43 catalog number 2675,Tocris Bioscience), respectively.

[3] = NAD+ plus Tph-1 inhibition, flow cytometry
[4] = NAD+ treatment followed by Tph-1 inhibition, spleen, flow cytometry

With `C[C@H](NC(=NC#N)Nc1cccc2ncccc12)c1ccccc1` [A804598, 2-cyano-1-[(1S)-1-phenylethyl]-3-quinolin-5-ylguanidine] the “reduction of IL-17A cytokine production induced by NAD+” value [1] was “complete” and the “production of IL-17A cytokine induced by NAD+” value [1] was “dramatic reduced production”.
For `N[C@@H](Cc1ccc(Cl)cc1)C(=O)O` (racemic) [p-Chlorophenylalanine], the clinical observation ([2]; EAE mice treated with NAD+ and Tph-1 inhibitor) was “hindlimb paralysis and became rapidly lethargic”, the “clinical signs of EAE vs MOG + placebo group” value ([2]; NAD+ and p-Chlorophenylalanine, 13 days after MOG immunization) was “more severe clinical signs of EAE” and the “CD4+CD25+Foxp3+ cell frequencies” value [2, 3] was “dramatic decrease”. For the same compound, the “IL-17A+IL-23R+ cells” value [2, 3] was “significant increase”, the “onset of clinical signs of EAE” value ([2]; NAD+ treated mice receiving Tph-1 inhibitor simultaneously, after MOG immunization) was 11 days and the IL-10/IFNγ producing cells [2, 4] was “reduced systemically”. For the same compound, the IL-17A producing cells [2, 4] was “reduced systemically”.
With `CNc1nc(Cl)nc2c1ncn2[C@H]1C[C@H](OP(=O)(O)O)[C@]2(COP(=O)(O)O)C[C@H]12` [MRS 2279, 2-Chloro N(6)-methyl-(N)-methanocarba-2′-deoxyadenosine-3′,5′-bisphosphate] the “production of IL-17A cytokine induced by NAD+” value [1] was “did not change”.
In the case of `O=C1CN=C(c2cccc(Br)c2)c2oc3ccccc3c2N1` [5-BDBD], the “reduction of IL-17A cytokine production induced by NAD+” value [1] is reported as “complete” and the “production of IL-17A cytokine induced by NAD+” value [1] is reported as “dramatic reduced production”.
